Data published in PubChem BioAssay AID687032 (Broad Institute, 2013).
Records with an inconclusive call do not appear.

Tested on: IOSE-T80 viability, CellTiterGlo ATP luminescence, 96 h
Experiment: IOSE-T80 viability loss, PAX8-independent line – cell-based, cherry-pick, selectivity assay for PAX8 inhibitor project, dose response (AID 687032)

Row | Structure (SMILES) | AC50
1 | C[C@H](CO)N1C[C@H](C)[C@H](CN(C)S(=O)(=O)c2ccc(Cl)cc2)OCCCC[C@H](C)Oc2ccc(NS(=O)(=O)c3ccc(F)cc3)cc2C1=O | < 0.26 µM
2 | CCCNC(=O)Nc1ccc2c(c1)OC[C@H](C)N(Cc1ccc(-c3ccccn3)cc1)C[C@@H](C)[C@@H](OC)CN(C)C2=O | < 0.26 µM
3 | O=C1CN(C(=O)Cn2ncc(Cl)c(Cl)c2=O)c2ccccc2N1 | < 0.26 µM
4 | Cn1nnnc1Sc1ncnc2scc(-c3cccc(S(C)(=O)=O)c3)c12 | 8.51 µM
5 | Cc1ccc(S(=O)(=O)Nc2ccc3c(c2)C(=O)N([C@H](C)CO)C[C@@H](C)[C@H](CN(C)Cc2ccc(C(F)(F)F)cc2)OCCCC[C@@H](C)O3)cc1 | < 0.26 µM
6 | Cc1ccccc1CNC(=O)C1CCCN(c2nnc(C)c3c(C)n(-c4ccccc4)nc23)C1 (stereo unspecified) | < 0.26 µM
7 | COc1cccc(N2CCN(C(=O)c3ccc(CS(=O)c4ccccc4Cl)o3)CC2)c1 (stereo unspecified) | < 0.26 µM
8 | COc1ccccc1C(=O)Nc1nc2ccccc2[nH]1 | 9.81 µM
9 | C(=Cc1cnc2ccccc2n1)c1ccc2c(c1)OCO2 | 7.89 µM
10 | CC(C)CCCCCCCCCCCCC(=O)NCC(=O)NC1C(C)OC(Nc2ncnc3nc[nH]c23)C(O)C1O (stereo unspecified) | < 0.26 µM
11 | COc1ccc(CC2C(=O)NC(C)C(=O)N(C)C3Cc4ccc(cc4)Oc4cc(ccc4O)CC(C(=O)NC(C)C(=O)NC(C)C(=O)N2C)N(C)C3=O)cc1 (stereo unspecified) | 27.8 µM
12 | Cc1ccc(NC(=O)Cn2ncc(Cl)c(Cl)c2=O)cc1S(=O)(=O)N1CCCCC1 | < 0.26 µM
13 | O=C(Nc1ccccc1)NN(C(=O)CCl)c1ccccc1 | 8.6 µM
14 | C[C@@H]1CCCCO[C@@H](CN(C)Cc2ccc(C(F)(F)F)cc2)[C@@H](C)CN([C@@H](C)CO)C(=O)c2cc(NS(=O)(=O)c3ccccc3)ccc2O1 | < 0.26 µM
15 | Cc1ccc(S(=O)(=O)N(C)C[C@@H]2Oc3cc(C#Cc4ccncc4)ccc3S(=O)(=O)N([C@H](C)CO)C[C@@H]2C)cc1 | 24.2 µM
16 | Cc1cnc(NC(=O)CSc2nnc(C)n2N)s1 | < 0.26 µM

Row | Structure (SMILES) | AC50
17 | C[C@@H]1CCCCO[C@H](CN(C)Cc2ccc(C(F)(F)F)cc2)[C@H](C)CN([C@@H](C)CO)C(=O)c2cc(NS(=O)(=O)c3cccs3)ccc2O1 | 33.5 µM
18 | Cn1c(SCC(=O)c2ccccc2)nnc1-c1ccccn1 | < 0.26 µM
19 | Cc1ccc(S(=O)(=O)Nc2cccc3c2O[C@@H](CN(C)Cc2ccc(Oc4ccccc4)cc2)[C@@H](C)CN([C@H](C)CO)C3=O)cc1 | < 0.26 µM
20 | C[C@@H]1CCCCO[C@H](CN(C)Cc2ccc(C(F)(F)F)cc2)[C@H](C)CN([C@H](C)CO)C(=O)c2cc(NS(=O)(=O)c3cccs3)ccc2O1 | < 0.26 µM
21 | Cc1cc(Nc2ccc3c(c2)OCCO3)c2ccccc2n1 | < 0.26 µM
22 | CC(=O)[C@@]1(O)Cc2c(O)c3c(c(O)c2[C@H](O[C@H]2C[C@H](N)[C@H](O)[C@H](C)O2)C1)C(=O)c1ccccc1C3=O | 8.8 µM
23 | O=C(O)c1cccc(COc2ccc3c(c2)CCC3)c1 | < 0.26 µM
24 | COc1ccc(S(=O)(=O)Nc2ccc3c(c2)CC(=O)N([C@@H](C)CO)C[C@@H](C)[C@@H](CN(C)Cc2ccc(-c4ccccc4)cc2)O3)cc1 | < 0.26 µM
25 | Nc1nc(=S)c2[nH]cnc2[nH]1 | < 0.26 µM
26 | O=C(NC1CCCCC1)C(c1cccnc1)N(C(=O)CCl)c1ccc(F)cc1 (stereo unspecified) | 10.2 µM
27 | C[C@H](CO)N1C[C@H](C)[C@@H](CN(C)C(=O)Nc2ccnc(N3CCOCC3)c2)OCc2cnnn2CCCC1=O | < 0.26 µM
28 | Cc1nnc(N/N=C/c2cc(C)n(-c3ccc(F)cc3)c2C)n1N | 10.2 µM
29 | Cc1ccc(C(=O)N/C(=C\c2ccc(-c3ccc(Br)cc3)o2)C(=O)NCCCN(C)C)cc1 | 9.4 µM
30 | COc1ccc(S(=O)(=O)Nc2ccc3c(c2)C(=O)N([C@H](C)CO)C[C@H](C)[C@@H](CN(C)Cc2ccc(Cl)c(Cl)c2)OCCCC[C@@H](C)O3)cc1 | 6.54 µM
31 | C#CCN(C[C@@H]1[C@@H](OC(=O)NCC2CCCCC2)[C@@H](OC(=O)NCC2CCCCC2)Cn2c(=O)ccc(=O)n21)S(=O)(=O)c1ccc(C)cc1 | < 0.26 µM
